Assay: Assay (I): Determination of Solubility (96-well plate, pH 3.0-11.0, organic solvent 0-70% w/w, UV absorption at 280 nm)
Assay type: physicochemical
Settings: Method 1
Experimental: Assay (I): Determination of Solubility
96-Well Plate Preparation
96-well plates containing target peptide in a solid form were prepared in one of two ways:
Method 1 (evaporation): Addition of 100 μl stock solution of said peptide at a concentration of 4-6 mg/ml to each well of a 96-well half area plate (150 μl well size). Subsequently the solvent was evaporated by applying a vacuum until the solvent was completely removed.
Method 2 (precipitation): Addition of a certain volume of a stock solution of said peptide containing to each well of a 96-well half area plate followed by the addition of a certain volume of concentrated phosphoric acid to obtain a pH of 4.6 followed by addition of a certain volume of ethanol resulting in a final ethanol concentration of 20% v/v. Subsequently the plate was stored at 4° C. for 1 h and then centrifuged at 4,000 rpm for 20 min. Finally the supernatant was removed. The concentration of the stock solution was chosen in a way that the final amount of peptide after supernatant removal was >0.4 mg per well.
In both cases the stock solution was prepared by adding de-ionized water to a certain amount of powder of said peptide followed by a stepwise addition of small amounts of a concentrated sodium hydroxide solution until said peptide was completely in solution.
To determine solubility of a target peptide at different pH and organic solvent concentrations, two different buffer systems were used in independent experiments to cover the whole range from pH 3.0 to pH 11.0. Buffer system 1 covers pH 3.0-7.5 and buffer system 2 covers pH 7.5-11.0. For each buffer system 96 different solvent compositions were premixed in the following way: • 1. A low pH buffer (adjusted to either pH 3.0 or pH 7.5) and a high pH buffer (adjusted to either pH 7.5 or pH 11.0) were mixed at 8 different ratios to obtain values between pH 3.0 and pH 7.5 or pH 7.5 and pH 11.0, respectively. The total volume after mixing was 300 μl. • 2. 12 different amounts of organic solvent were then added to these buffers to obtain organic solvent (e.g. ethanol) concentrations between 0 and 70% w/w. • 3. Water was then added to obtain a total weight of 1.0 g of solvent in each well.
After preparing the 96 different solvent systems, 100 μl of each system was transferred to the 96-well plate containing the solid form of the target peptide (prepared as described in the section “96-well plate preparation”). The plate was then stored at a given temperature (between 5° C. and 70° C.) for a given time on a rotating shaker set to 400 rpm. At regular time intervals the plate was centrifuged (4,000 rpm for 10 min) and a 10 μl sample was taken from each well. The samples were then analysed by UV absorption at 280 nm for peptide quantification. Peptide concentration results are given as UV absorption at 280 nm of the sample subtracted UV absorption at 280 nm of a well comprising 10 μl water.
The buffers used were as follows: • Buffer system 1 (for the pH range from pH 3.0-7.5)
• Buffer system 2 (for the pH ranae from pH 7.5-11.0)
Solubility of liraglutide was determined using Assay (I) described herein. Liraglutide was prepared using Method 1 (evaporation) or Method 2 (precipitation) as described in subsection “96-well plate preparation”.

Peptide concentration after 180 min (MeCN 50.9% w/w, pH 8.0, 5° C.): 2.2 mg/mL
Peptide concentration after 24 h (MeCN 50.9% w/w, pH 8.0, 5° C.): >4.0 mg/mL
Peptide concentration after 5 min (MeCN 50.9% w/w, pH 8.5, 5° C.): 0.6 mg/mL
Peptide concentration after 180 min (MeCN 50.9% w/w, pH 8.5, 5° C.): 2.6 mg/mL
Peptide concentration after 24 h (MeCN 50.9% w/w, pH 8.5, 5° C.): >4.0 mg/mL
Peptide concentration after 5 min (MeCN 50.9% w/w, pH 9.0, 5° C.): 0.6 mg/mL
Peptide concentration after 180 min (MeCN 50.9% w/w, pH 9.0, 5° C.): 2.0 mg/mL
Peptide concentration after 24 h (MeCN 50.9% w/w, pH 9.0, 5° C.): >4.0 mg/mL
Peptide concentration after 5 min (MeCN 50.9% w/w, pH 9.5, 5° C.): 1.0 mg/mL
Peptide concentration after 180 min (MeCN 50.9% w/w, pH 9.5, 5° C.): 2.4 mg/mL
Peptide concentration after 24 h (MeCN 50.9% w/w, pH 9.5, 5° C.): >4.0 mg/mL
Peptide concentration after 5 min (MeCN 50.9% w/w, pH 10.0, 5° C.): 1.5 mg/mL
Peptide concentration after 180 min (MeCN 50.9% w/w, pH 10.0, 5° C.): 2.6 mg/mL
Peptide concentration after 24 h (MeCN 50.9% w/w, pH 10.0, 5° C.): >4.0 mg/mL
Peptide concentration after 5 min (MeCN 50.9% w/w, pH 10.5, 5° C.): 0.9 mg/mL
Peptide concentration after 180 min (MeCN 50.9% w/w, pH 10.5, 5° C.): 2.1 mg/mL
Peptide concentration after 24 h (MeCN 50.9% w/w, pH 10.5, 5° C.): 3.8 mg/mL
Peptide concentration after 5 min (MeCN 50.9% w/w, pH 11.0, 5° C.): 0.7 mg/mL
Peptide concentration after 180 min (MeCN 50.9% w/w, pH 11.0, 5° C.): 2.2 mg/mL
Peptide concentration after 24 h (MeCN 50.9% w/w, pH 11.0, 5° C.): >4.0 mg/mL
Peptide concentration after 5 min (MeCN 57.3% w/w, pH 8.0, 5° C.): 0.5 mg/mL
Peptide concentration after 180 min (MeCN 57.3% w/w, pH 8.0, 5° C.): 1.6 mg/mL
Peptide concentration after 24 h (MeCN 57.3% w/w, pH 8.0, 5° C.): 3.4 mg/mL
Peptide concentration after 5 min (MeCN 57.3% w/w, pH 8.5, 5° C.): 0.5 mg/mL
Peptide concentration after 180 min (MeCN 57.3% w/w, pH 8.5, 5° C.): 1.6 mg/mL
Peptide concentration after 24 h (MeCN 57.3% w/w, pH 8.5, 5° C.): 3.7 mg/mL
Peptide concentration after 5 min (MeCN 57.3% w/w, pH 9.0, 5° C.): 0.5 mg/mL
Peptide concentration after 180 min (MeCN 57.3% w/w, pH 9.0, 5° C.): 1.9 mg/mL
Peptide concentration after 24 h (MeCN 57.3% w/w, pH 9.0, 5° C.): >4.0 mg/mL
Peptide concentration after 5 min (MeCN 57.3% w/w, pH 9.5, 5° C.): 1.0 mg/mL
Peptide concentration after 180 min (MeCN 57.3% w/w, pH 9.5, 5° C.): 2.0 mg/mL
Peptide concentration after 24 h (MeCN 57.3% w/w, pH 9.5, 5° C.): 4.0 mg/mL
Peptide concentration after 5 min (MeCN 57.3% w/w, pH 10.0, 5° C.): 1.4 mg/mL
Peptide concentration after 180 min (MeCN 57.3% w/w, pH 10.0, 5° C.): 1.6 mg/mL
Peptide concentration after 24 h (MeCN 57.3% w/w, pH 10.0, 5° C.): 1.8 mg/mL
Peptide concentration after 5 min (MeCN 57.3% w/w, pH 10.5, 5° C.): 1.1 mg/mL
Peptide concentration after 180 min (MeCN 57.3% w/w, pH 10.5, 5° C.): 1.1 mg/mL
Peptide concentration after 24 h (MeCN 57.3% w/w, pH 10.5, 5° C.): 1.6 mg/mL
Peptide concentration after 5 min (MeCN 57.3% w/w, pH 11.0, 5° C.): 0.9 mg/mL
Peptide concentration after 180 min (MeCN 57.3% w/w, pH 11.0, 5° C.): 1.4 mg/mL
Peptide concentration after 24 h (MeCN 57.3% w/w, pH 11.0, 5° C.): 2.6 mg/mL
Peptide concentration after 5 min (MeCN 63.6% w/w, pH 8.0, 5° C.): 0.3 mg/mL
Peptide concentration after 180 min (MeCN 63.6% w/w, pH 8.0, 5° C.): 0.6 mg/mL
Peptide concentration after 24 h (MeCN 63.6% w/w, pH 8.0, 5° C.): 2.0 mg/mL
Peptide concentration after 5 min (MeCN 63.6% w/w, pH 8.5, 5° C.): 0.6 mg/mL
Peptide concentration after 180 min (MeCN 63.6% w/w, pH 8.5, 5° C.): 0.8 mg/mL
Peptide concentration after 24 h (MeCN 63.6% w/w, pH 8.5, 5° C.): 2.1 mg/mL
Peptide concentration after 5 min (MeCN 63.6% w/w, pH 9.0, 5° C.): 1.4 mg/mL
Peptide concentration after 180 min (MeCN 63.6% w/w, pH 9.0, 5° C.): 0.9 mg/mL
Peptide concentration after 24 h (MeCN 63.6% w/w, pH 9.0, 5° C.): 2.6 mg/mL
Peptide concentration after 5 min (MeCN 63.6% w/w, pH 9.5, 5° C.): 0.2 mg/mL
Compound: CCCCCCCCCCCCCCCC(=O)N[C@@H](CCC(=O)NCCCC[C@H](NC(=O)[C@H](C)NC(=O)[C@H](C)NC(=O)[C@H](CCC(N)=O)NC(=O)CNC(=O)[C@H](CCC(=O)O)NC(=O)[C@H](CC(C)C)NC(=O)[C@H](Cc1ccc(O)cc1)NC(=O)[C@H](CO)NC(=O)[C@H](CO)NC(=O)[C@@H](NC(=O)[C@H](CC(=O)O)NC(=O)[C@H](CO)NC(=O)[C@@H](NC(=O)[C@H](Cc1ccccc1)NC(=O)[C@@H](NC(=O)CNC(=O)[C@H](CCC(=O)O)NC(=O)[C@H](C)NC(=O)[C@@H](N)Cc1cnc[nH]1)[C@@H](C)O)[C@@H](C)O)C(C)C)C(=O)N[C@@H](CCC(=O)O)C(=O)N[C@@H](Cc1ccccc1)C(=O)N[C@H](C(=O)N[C@@H](C)C(=O)N[C@@H](Cc1c[nH]c2ccccc12)C(=O)N[C@@H](CC(C)C)C(=O)N[C@H](C(=O)N[C@@H](CCCNC(=N)N)C(=O)NCC(=O)N[C@@H](CCCNC(=N)N)C(=O)NCC(=O)O)C(C)C)[C@@H](C)CC)C(=O)O [liraglutide, Arg34,Lys26-(N-epsilon-(gamma-L-glutamyl(N-alfa-hexadecanoyl)))-GLP-1(7-37)]
